Measurements as given in US20240391912A1, “MORPHIC FORMS OF CFT7455 AND METHODS OF MANUFACTURE THEREOF” (C4 THERAPEUTICS, INC., priority 2022, published 2024).
In brackets after ≈: the same amount, converted by molar mass. Entries after “also recorded” stand apart in the source; their conditions may differ.

What was measured:
Format in all cases: physicochemical
[1] = Crystallization of Compound 1 at room temperature by slow evaporation (XRPD)
Experimental: About 20 mg of Compound 1 Form I (free form) was dissolved and filtered by 0.45 μm nylon filter. Obtained solutions were evaporated slowly at ambient condition. Solid residues were examined for their polymorphic form.

[2] = Water activity study of Compound 1 Form I at 25° C. for 1 week; conditions: for change of morphic form in solvents with high water content (water activity study): acetone/water, DMSO/water, pure water, 25° C.
Experimental: Water activity experiments were conducted at 25° C. in 7 different water activities solvent mixtures to determine critical water activity of Compound 1 Form I. About 20 mg of Compound 1 Form I was added to 1.0 mL of acetone/water or DMSO/water mixtures and stirred at 400 rpm and 25° C. for 1 week.

[3] = Behavior of Compound 1 Form I under heating and cooling (DSC cycles); conditions: for Melting onset: reheat to 300° C. at 10° C./min
Experimental: Polymorphic behavior of Compound 1 Form I (free form) was investigated by two different heating-cooling cycles of DSC. The results were summarized in Table 6. • HCH1: 30° C. to 300° C. at 10° C./min; 300° C. to −20° C. at 20° C./min; reheat to 300° C. at 10° C./min. • HCH2: 30° C. to 300° C. at 10° C./min; 300° C. to −20° C. at 2° C./min; reheat to 300° C. at 10° C./min.

[4] = Approximate solubility of Compound 1 Form I at 25° C. and 50° C. (visual observation); conditions: thermodynamic from solid
Experimental: Max. volume of each solvent added was 1 mL. Approximate solubility was determined by visual observation.

[5] = Scale-up experiment (200 mg) and characterization of new polymorphs of Compound 1
Experimental: Scale-up 1: About 200 mg of Compound 1 Form I was dissolved in 10 mL THF/Water (95:5, v:v) at 40° C. […] Compound 1 Form IV was obtained. It was subjected to characterization.
Scale-up 2: About 200 mg of Compound 1 Form I was dissolved in 10 mL THF/Water (95:5, v:v) at 40° C. […] It was subjected to characterization.

[6] = Precipitation of Compound 1 by addition of anti-solvent to DMSO solution (XRPD, residual solvent); conditions: for residual DMSO: 1H-NMR after vacuum drying at 80° C. for 2 hours; for Notes (appearance) / XRPD: solvent DMSO
Experimental: About 20 mg of Compound 1 Form I (free form) was dissolved in DMSO and anti-solvent was added into the obtained solution slowly. Precipitates were collected by filtration. The solid part (wet cake) was investigated by XRPD. Residual solvent of these solids was also analyzed by ^1H-NMR after vacuum dried at 80° C. for 2 hours.

[7] = Equilibration of Compound 1 Form I with solvents at 25° C. for 2 weeks (XRPD)
Experimental: About 30 mg of Compound 1 Form I (free form) was equilibrated in 1 mL of solvent at 25° C. for 2 weeks with a stirring plate. The obtained suspension was filtered. The solid part (wet cake) was investigated b XRPD.

[8] = Equilibration of Compound 1 Form I with solvents at 50° C. for 1 week (XRPD)
Experimental: About 50 mg of Compound 1 Form I (free form) was equilibrated in 1 mL of solvent at 50° C. for 1 week with a stirring plate. The obtained suspension was filtered and the solid part (wet cake) was investigated by XRPD.

[9] = anti-solvent Water, about 2 mg of seeds added
[10] = solids after equilibration in EtOH, 25° C., 2 weeks
[11] = solids after equilibration in EtOH

With `O=C1CC[C@H](N2C(=O)c3cccc4c(Cc5ccc(CN6CCOCC6)cc5)ccc2c34)C(=O)N1` [Compound 1 Form I, (S)-3-(6-(4-(morpholinomethyl)benzyl)-2-oxobenzo[cd]indol-1(2H)-yl)piperidine-2,6-dione] the “Notes (form obtained)” value ([1]; slow evaporation from DCM) was “Form I”, the “XRPD (form change)” value ([1]; slow evaporation from DCM at ambient condition) was “−” and the “Notes (form obtained)” value ([1]; slow evaporation from MeOH/DCM(v:v = 1:1)) was “Form II”. The “XRPD (form change)” value ([1]; slow evaporation from MeOH/DCM(v:v = 1:1) at ambient condition) was “+ (Form changed detected.)”, the “Notes (form obtained)” value ([1]; slow evaporation from THF) was “Form III” and the “XRPD (form change)” value ([1]; slow evaporation from THF at ambient condition) was “+ (Form changed detected.)”. The “Notes (form obtained)” value ([1]; slow evaporation from THF:Water (v:v = 95:5)) was “Form III”, the “XRPD (form change)” value ([1]; slow evaporation from THF:Water (v:v = 95:5) at ambient condition) was “+ (Form changed detected.)” and the XRPD ([2]; Acetone, a.w. 0, 25° C.) was “Form I”. The XRPD ([2]; Acetone/Water (91:9, v:v), a.w. 1, 25° C.) was “Form I”, the XRPD ([2]; Acetone/Water (94:6, v:v), a.w. 0.5, 25° C.) was “Form I” and the XRPD ([2]; Acetone/Water (97:3, v:v), a.w. 0.3, 25° C.) was “Form I”. The XRPD ([2]; Acetone/Water (99:1, v:v), a.w. 0.1, 25° C.) was “Form I”, the XRPD ([2]; DMSO/Water (64:36, v:v), a.w. 0.5, 25° C.) was “Form I” and the XRPD ([2]; Water, a.w. 1, 25° C.) was “Form I”. For the same compound, the “change of morphic form in solvents with high water content (water activity study)” value [2] was “no significant changes to the morphic form”, the “change of morphic form in solvents with high water content (water activity study)” value ([2]; listed as Form I) was “only Form I was obtained” and the Melting onset ([3]; HCH1: 30° C. to 300° C. at 10° C./min, 300° C. to −20° C. at 20° C./min) was “Melting onset 231.4° ° C”. For the same compound, the enthalpy ([3]; HCH1: cooling 300° C. to −20° C. at 20° C./min) was “C.; enthalpy 115 J/g”, the Melting onset ([3]; HCH2: 30° C. to 300° C. at 10° C./min, 300° C. to −20° C. at 2° C./min) was “Melting onset 231.3° ° C” and the enthalpy ([3]; HCH2: cooling 300° C. to −20° C. at 2° C./min) was “C.; enthalpy 108 J/g”. For the same compound, the solubility ([4]; DCM, 25 °C, organic solvent or mixture) was 8000 to 13000 µg/mL (≈ 17 to 27.7 mM), the solubility ([4]; DCM, 50 °C, organic solvent or mixture) was 16000 to 25000 µg/mL (≈ 34.1 to 53.2 mM) and the solubility ([4]; DCM:MeOH (v:v = 1:1), 25 °C, organic solvent or mixture, DCM:MeOH (v:v = 1:1), 25° C.) was 17000 to 20000 µg/mL (≈ 36.2 to 42.6 mM). For the same compound, the solubility ([4]; DCM:MeOH (v:v = 1:1), 50 °C, organic solvent or mixture, DCM:MeOH (v:v = 1:1), 50° C.) was 29000 to 33000 µg/mL (≈ 61.8 to 70.3 mM), the solubility ([4]; DMSO, 25 °C, organic solvent or mixture) was 83000 to 125000 µg/mL (≈ 177 to 266 mM) and the solubility ([4]; DMSO, 25 °C, organic solvent or mixture, in DMSO, solubilized at about 25° C.) was no less than 50000 µg/mL. The solubility ([4]; DMSO, 50 °C, organic solvent or mixture) was 167000 to 250000 µg/mL (≈ 356 to 532 mM), the solubility ([4]; Ethanol:Water (8:2, v:v), 25 °C, organic solvent or mixture, Ethanol:Water (8:2, v:v), 25° C.) was less than 5000 µg/mL and the solubility ([4]; Ethanol:Water (8:2, v:v), 50 °C, organic solvent or mixture, Ethanol:Water (8:2, v:v), 50° C.) was less than 10000 µg/mL. The solubility ([4]; MTBE, 25 °C, organic solvent or mixture) was less than 5000 µg/mL, the solubility ([4]; MTBE, 50 °C, organic solvent or mixture) was less than 10000 µg/mL and the solubility ([4]; THF, 25 °C, organic solvent or mixture) was 8000 to 13000 µg/mL (≈ 17 to 27.7 mM). For the same compound, the solubility ([4]; THF, 50 °C, organic solvent or mixture) was 16000 to 25000 µg/mL (≈ 34.1 to 53.2 mM), the solubility ([4]; THF:Water (v:v = 95:5), 25 °C, organic solvent or mixture, THF:Water (v:v = 95:5), 25° C.) was 17000 to 20000 µg/mL (≈ 36.2 to 42.6 mM) and the solubility ([4]; THF:Water (v:v = 95:5), 50 °C, organic solvent or mixture, THF:Water (v:v = 95:5), 50° C.) was 40000 to 50000 µg/mL (≈ 85.2 to 106 mM). The solubility ([4]; acetone, 25 °C, organic solvent or mixture) was less than 5000 µg/mL, the solubility ([4]; acetone, 50 °C, organic solvent or mixture) was less than 10000 µg/mL and the solubility ([4]; acetonitrile, 25 °C, organic solvent or mixture) was less than 5000 µg/mL. The solubility ([4]; acetonitrile, 50 °C, organic solvent or mixture) was less than 10000 µg/mL, the solubility ([4]; ethanol, 25 °C, organic solvent or mixture) was less than 5000 µg/mL and the solubility ([4]; ethanol, 50 °C, organic solvent or mixture) was less than 10000 µg/mL. For the same compound, the solubility ([4]; ethyl acetate, 25 °C, organic solvent or mixture) was less than 5000 µg/mL, the solubility ([4]; ethyl acetate, 50 °C, organic solvent or mixture) was less than 10000 µg/mL and the solubility ([4]; heptane, 25 °C, organic solvent or mixture) was less than 5000 µg/mL. The solubility ([4]; heptane, 50 °C, organic solvent or mixture) was less than 10000 µg/mL, the solubility ([4]; methanol, 25 °C, organic solvent or mixture, approximate, visual observation) was less than 5000 µg/mL and the solubility ([4]; methanol, 50 °C, organic solvent or mixture, approximate, visual observation) was less than 10000 µg/mL. For the same compound, the solubility ([4]; water, 25 °C) was less than 5000 µg/mL, the solubility ([4]; water, 50 °C) was less than 10000 µg/mL and the “Stoichiometry: DCM” value ([5]; 1H-NMR, listed as Form I) was 0.6% DCM. The DSC enthalpy ([5]; DSC, 10° C./min) was “enthalpy 114 J/g”, the DSC melting onset ([5]; DSC, 10° C./min) was 233.9° C.; and the Thermogravimetry weight loss ([5]; TGA, 10° C./min, at 225° C.) was “About 2.0%”. For the same compound, the “residual DMSO” value ([6]; DMSO/EtOH precipitate) was 0.05 equiv. residual, the “residual DMSO” value ([6]; DMSO/MeOH precipitate) was 0.14 equiv. residual and the “residual DMSO” value ([6]; DMSO/Water precipitate) was 0.90 equiv. residual. The “Notes (appearance)” value ([6]; anti-solvent Acetone, held at 5° C. for 2 days, no solid obtained) was “Clear solution^a”, the “Notes (appearance)” value ([6]; anti-solvent EtOAc) was “Clear solution” and the “Notes (appearance)” value ([6]; anti-solvent EtOH) was “Suspension”. For the same compound, the XRPD ([6]; anti-solvent EtOH) was “−”, the “Notes (appearance)” value ([6]; anti-solvent MeOH) was “Suspension” and the XRPD ([6]; anti-solvent MeOH, wet cake) was “−”. The “Notes (appearance)” value ([6]; anti-solvent Water) was “Suspension”, the XRPD ([6]; anti-solvent Water) was “−” and the “Notes (appearance)” value [6, 9] was “Suspension^b”. For the same compound, the XRPD [6, 9] was “−”, the “stability of the form in water (equilibration experiments)” value ([7]; alone in water / pure water) was “very stable; also recorded: stable” and the XRPD ([7]; equilibration in ACN, 25° C., 2 weeks) was “Form I”. For the same compound, the XRPD ([7]; equilibration in Acetone, 25° C., 2 weeks) was “Form I”, the XRPD ([7]; equilibration in DCM, 25° C., 2 weeks) was “Form I” and the XRPD ([7]; equilibration in DCM:MeOH (v:v = 1:1), 25° C., 2 weeks) was “Form I”. The XRPD ([7]; equilibration in DCM:THF(v:v = 8:2), 25° C., 2 weeks) was “Form I”, the XRPD ([7]; equilibration in EA, 25° C., 2 weeks) was “Form I” and the XRPD ([7]; equilibration in EtOH, 25° C., 2 weeks) was “Form I”. The XRPD ([7]; equilibration in MeOH, 25° C., 2 weeks) was “Form I”, the XRPD ([7]; equilibration in THF, 25° C., 2 weeks, wet cake) was “Form I” and the XRPD ([7]; equilibration in THF:Water (v:v = 95:5), 25° C., 2 weeks) was “Form I”. The Melting onset [7, 10] was “Melting onset: 239.0° C.,”, the enthalpy [7, 10] was “enthalpy: 107 J/g” and the “residual DCM” value [7, 10] was 0.4% residual DCM. The XRPD ([8]; equilibration in ACN) was “Form I”, the XRPD ([8]; equilibration in Acetone) was “Form I” and the XRPD ([8]; equilibration in DCM) was “Form I”. The XRPD ([8]; equilibration in DCM:MeOH (v:v = 1:1)) was “Form I”, the XRPD ([8]; equilibration in DCM:THF(v:v = 8:2)) was “Form I” and the XRPD ([8]; equilibration in EA) was “Form I”. The XRPD ([8]; equilibration in EtOH) was “Form I”, the XRPD ([8]; equilibration in MeOH) was “Form I” and the XRPD ([8]; equilibration in THF, wet cake) was “Form I”. The XRPD ([8]; equilibration in THF:Water (v:v = 95:5)) was “Form I”, the Melting onset [8, 11] was “Melting onset: 239.5° C.,” and the enthalpy [8, 11] was “enthalpy: 109 J/g”. The “residual DCM” value [8, 11] was 0.4% residual DCM.
